Experiments:
Wistar rats = assay: Measurement of blood pressure lowering action (blood pressure and heart rate after intravenous injection without anesthesia); format: in vivo; design: Blood pressure (mmHg, ± standard error): unit not given here; conditions: for Blood pressure (mmHg, ± standard error): 0 min. value assigned 100
Protocol: Thirty five, male Wistar rats.
Cannulas were inserted into the left carotid artery for measuring blood pressure, and into the left jugular vein for intravenous injection of the test compounds, respectively. After being housed normally in their cages overnight following surgery, the animals were injected with the test solutions without anesthesia. Blood pressure and heart rate were measured immediately before dosing (0 minutes) and at 5, 30, 60, 120 and 240 minutes after dosing. The blood pressure at 0 minutes for each animals was assigned a value of 100, and measured values of blood pressure at each time were then normalized based on that value.

C57BL mice = assay: Toxicity study, single administration into the caudal vein; format: in vivo; conditions: for Mortality: 0.03, 0.3, 3 mg/kg i.v., mice, 14 days observation; for Body weights: 0.03-3 mg/kg i.v., days 1, 3, 7 and 14 after dosing; for General condition starting on the day after dosing: all dose groups, day after dosing through day 14
Protocol: The test compound solutions were administered into the caudal vein at the rate of about 5 ml per minute. […] In addition, body weights were measured immediately before dosing and on days 1, 3, 7 and 14 after dosing.

[1] = system: Alzheimer's dementia animal model by continuous intraventricular infusion of β protein; assay: Step-through passive evasion test in rats with continuous intraventricular infusion of β-amyloid protein (learning and memory ability improvement effect); format: in vivo, Wistar rats
Source text: A step-through passive evasive reaction apparatus composed of two chambers separated by a guillotine door, was used for the experimental apparatus. Namely, one of the chambers was a bright chamber composed of clear acrylic boards (floor: 15 cm×25 cm, height: 15 cm) while the other chamber was a dark chamber (of the same size) composed of black acrylic boards. In addition, stainless steel grids having a diameter of 4 mm were provided at intervals of 15 mm on the floor of the dark room, and connected to a shock generator for applying an electric shock. To begin with, after opening the guillotine door and allowing to freely explore the inside of the apparatus for 1 minute, the door was closed, the rat was placed in the bright chamber as an acquisition trial and the door was opened 30 seconds later. The door was closed after all four limbs of the rat entered the dark chamber followed immediately by the application of an electric shock. […] As a retention trial conducted 24 hours after the acquisition trial, the rat was placed in the bright chamber and the amount of time until all four limbs entered the dark chamber after the guillotine door was opened 30 seconds later was measured (step-through latency). […] The learning and memory ability improvement action of test compound A was measured using the evaluation methods of Reference Examples 1 and 2. […]

[2] = 0.03 mg/kg i.v., 5 min. after dosing
[3] = 0.03 mg/kg i.v., 30 min. after dosing
[4] = 0.03 mg/kg i.v., 60 min. after dosing
[5] = 0.03 mg/kg i.v., 2 hr. after dosing
[6] = 0.03 mg/kg i.v., 4 hr. after dosing
[7] = 0.3 mg/kg i.v., 5 min. after dosing
[8] = 0.3 mg/kg i.v., 30 min. after dosing
[9] = 0.3 mg/kg i.v., 60 min. after dosing
[10] = 0.3 mg/kg i.v., 2 hr. after dosing
[11] = 0.3 mg/kg i.v., 4 hr. after dosing
[12] = 3 mg/kg i.v., 5 min. after dosing
[13] = 3 mg/kg i.v., 30 min. after dosing
[14] = 3 mg/kg i.v., 60 min. after dosing
[15] = 3 mg/kg i.v., 2 hr. after dosing
[16] = 3 mg/kg i.v., 4 hr. after dosing

Structure (SMILES) | Blood pressure (mmHg, ± standard error) (Wistar rats; [2]) | Blood pressure (mmHg, ± standard error) (Wistar rats; [3]) | Blood pressure (mmHg, ± standard error) (Wistar rats; [4]) | Blood pressure (mmHg, ± standard error) (Wistar rats; [5]) | Blood pressure (mmHg, ± standard error) (Wistar rats; [6]) | Blood pressure (mmHg, ± standard error) (Wistar rats; [7]) | Blood pressure (mmHg, ± standard error) (Wistar rats; [8]) | Blood pressure (mmHg, ± standard error) (Wistar rats; [9]) | Blood pressure (mmHg, ± standard error) (Wistar rats; [10]) | Blood pressure (mmHg, ± standard error) (Wistar rats; [11]) | Blood pressure (mmHg, ± standard error) (Wistar rats; [12]) | Blood pressure (mmHg, ± standard error) (Wistar rats; [13]) | Blood pressure (mmHg, ± standard error) (Wistar rats; [14]) | Blood pressure (mmHg, ± standard error) (Wistar rats; [15]) | Blood pressure (mmHg, ± standard error) (Wistar rats; [16]) | Mortality (C57BL mice) | Body weights (C57BL mice) | General condition starting on the day after dosing (C57BL mice) | other results
COC(=O)CCCCC1=C[C@H]2C[C@@H](O)[C@H](/C=C/[C@@H](O)Cc3cccc(C)c3)[C@H]2C1 [Comparative Test Compound D, (15S)-16-(m-tolyl)-17,18,19,20-tetranorisocarbacycline methyl ester, reference compound] | 88.9 | 92.1 | 96.5 | 97.3 | 99.0 | 49.6 | 78.5 | 94.4 | 93.3 | 99.3 | 55.0 | 60.0 | 81.1 | 103.8 | 115.4 | – | – | – | Duration of decreased blood pressure (Wistar rats; 3 mg/kg and 0.3 mg/kg dose groups, i.v.): ≥ 30 min
COC(=O)CCCCC1=C[C@H]2C[C@@H](O)[C@H](/C=C/CCc3cccc(C)c3)[C@H]2C1 [Test compound C, 15-deoxy-16-(m-tolyl)-17,18,19,20-tetranorisocarbacycline methyl ester] | – | – | – | – | – | – | – | – | – | – | – | – | – | – | – | none of the animals died | no significant fluctuations | no abnormalities observed in any of the groups | General condition on the day of dosing (C57BL mice; all dose groups (0.03, 0.3, 3 mg/kg i.v.)): no abnormalities observed in any of the groups
Cc1cccc(C[C@@H](O)/C=C/[C@H]2[C@H](O)CC3C=C(CCCCC(=O)O)C[C@@H]32)c1 (stereo partly drawn) [Test compound A, (15R)-16-(m-tolyl)-17,18,19,20-tetranorisocarbacycline] | – | – | – | – | – | – | – | – | – | – | – | – | – | – | – | – | – | – | Time until moved to dark chamber during retention trial Mean ± standard error ([1]; β-amyloid protein (1-42) 300 pmol/day + test compound 1.2 fmol/day, intraventricular osmotic pump, max observation 300 sec): 265.7 ± 32.6 (n = 6) sec.; Learning and memory ability improvement action ([1]; β-amyloid protein (1-42) infused rats, overall conclusion): improved learning and memory ability
COC(=O)CCCCC1=C[C@H]2C[C@@H](O)[C@H](/C=C/[C@H](O)Cc3cccc(C)c3)[C@H]2C1 [Test compound B, (15R)-16-(m-tolyl)-17,18,19,20-tetranorisocarbacycline methyl ester] | 105.8 | 103.4 | 103.6 | 104.5 | 100.5 | 92.9 | 97.7 | 97.7 | 98.5 | 98.0 | mild decrease | 99.4 | 101.9 | 102.7 | 101.0 | none of the animals died | no significant fluctuations | no abnormalities observed in any of the groups | Time until decreased movement disappeared after dosing (C57BL mice; 3 mg/kg dose group, i.v.): ≤ 30 min; General condition on the day of dosing (C57BL mice; 3 mg/kg dose group, i.v., starting immediately after dosing): decreased movement; Blood pressure change immediately after dosing (Wistar rats; 3 mg/kg dose group, i.v.): decrease in blood pressure; Heart rate change immediately after dosing (Wistar rats; 3 mg/kg dose group, i.v.): increase in heart rate; Time after dosing at which blood pressure and heart rate returned to normal (Wistar rats; 3 mg/kg dose group, i.v.): 30 min; Blood pressure (mmHg, ± standard error) (Wistar rats; 3 mg/kg i.v., 5 min. after dosing, listed as Test comp. B): 80.4; Fluctuations in blood pressure and heart rate (Wistar rats; 0.3 and 0.03 mg/kg dose groups, i.v.): no significant fluctuations; Effect on the circulatory system (overall conclusion) (Wistar rats; rats, i.v. 0.03-3 mg/kg): extremely mild effect

— patent publication US6884819B1, “Neuropathy remedies” (Teijin Limited, priority 1999, dated 2005)
